Assay results from US20020122768A1, “Stable radiopharmaceutical compositions and methods for preparation thereof” (priority 2000, published 2002).

What was measured:
Format in all cases: physicochemical
[1] = Solution stability of ^177Lu-C at −78° C., RCP by radio-HPLC; settings: ^177Lu-C prepared using 2 mg GA, degassed, second stabilizer (20 mg AA, 20 mg DSA, 10 mg 2,3,4-THBA, 10 mg 3,4,5-THBA) added post-labeling
[2] = Solution stability of ^90Y-B at −78° C., RCP by radio-HPLC; settings: ^90Y-B prepared with GA
Experimental: (§1) The integrity of a radiopharmaceutical is measured by the radiochemical purity (RCP) of the radiolabeled compound using ITLC or more preferably HPLC. The advantage of using HPLC is that radio-impurities caused by radiolytic degradation can be separated from the radiopharmaceutical under optimized chromatographic conditions. […] The radiopharmaceutical compositions of this invention are effective in maintaining the long-term stability of samples that have been frozen, thawed, and re-tested periodically for 7 days.
(§2) The initial RCP of a radiopharmaceutical is largely dependent on radiolabeling conditions such as pH, heating temperature and time. Once a radiopharmaceutical is prepared in high yield, the stability of the radiopharmaceutical composition is measured by the` RCP change of the radiopharmaceutical over a certain period of time. For comparison purposes, sodium gentisate or sodium ascorbate was often used as the reference since they have been used in various radiopharmaceutical formulations.
(§3) HPLC method 2 used a HP-1100 HPLC system with a UV/visible detector (λ=220 nm), an IN-US radio-detector, and a Zorbax C18 column (4.6 mm×250 mm, 80 Å pore size). The flow rate was 1 mL/min with a gradient mobile phase starting from 92% solvent A (0.025 M ammonium acetate buffer, pH 6.8) and 8% solvent B (acetonitrile) at 0 min to 90% solvent A and 10% solvent B at 18 min, followed by an isocratic wash using 40% of solvent A and 60% solvent B from 19 to 25 min.
The ITLC method used Gelman Sciences silica-gel ITLC paper strips and 1:1 mixture of acetone and saline as eluant. By this method, the radiolabeled compounds migrate to the solvent front while [^90Y]/^177Lu]colloid and [^90Y]/^177Lu]acetate remain at the origin. […]
The 0.5 M ammonium acetate buffer (pH 8.0) was first degassed under vacuum for 1-2 min. COMPOUND B and gentisic acid (sodium salt, GA) were dissolved in the degassed buffer to give a concentration of 100 μg/mL for COMPOUND B and 20 mg/mL for GA. The resulting solution was immediately degassed under vacuum for another 1-2 min. To a clean sealed 5 mL vial was added 1.0 mL of the degassed 0.5 M ammonium acetate buffer (pH 8.0) containing 100 μg COMPOUND B and 10 mg GA. The solution was degassed again under vacuum. Upon addition of ˜20 μL of ^90YCl3 solution (˜20 mCi) in 0.05 N HCl, the reaction mixture was heated at 100° C. for 5 min. After cooling to room temperature, a sample of the resulting solution was diluted 20-fold with saline containing gentisate (10 mg/mL), and was then analyzed by HPLC (Method 2, injection volume=1-2 μL) and ITLC. […] To the solution above was added 0.5 mL of sodium ascorbate solution (40 mg/mL in 0.5 M ammonium acetate buffer, pH=7.4). The resulting mixture was then kept in a dry-ice box (−78° C.) for 7 days. Samples were analyzed at t=0, 3 and 7 days.
The 0.5 M ammonium acetate buffer (pH 8.0) was first degassed under vacuum for 1-2 min. COMPOUND B and gentisic acid (sodium salt, GA) were dissolved in the degassed buffer to give a concentration of 100 μg/mL for COMPOUND B and 20 mg/mL for GA. The resulting solution was immediately degassed under vacuum for another 1-2 min. To a clean sealed 5 mL vial was added 1.0 mL of the degassed 0.5 M ammonium acetate buffer (pH 8.0) containing 100 μg COMPOUND B and 10 mg GA. The solution was degassed again under vacuum. Upon addition of ˜20 μL of ^90YCl3 solution (˜20 mCi) in 0.05 N HCl, the reaction mixture was heated at 100° C. for 5 min. After cooling to room temperature, a sample of the resulting solution was diluted 20-fold with saline containing gentisate (10 mg/mL), and was then analyzed by HPLC (Method 2, injection volume=1-2 μL) and ITLC. […] To the solution above was added 0.5 mL of 2,3,4-trihydroxybenzoic acid solution (20 mg/mL in 0.5 M ammonium acetate buffer, pH=6.5). The resulting mixture was then kept in a dry-ice box (−78° C.) for 7 days. Samples were analyzed at t=0, 3 and 7 days. […]

[3] = Solution stability of ^177Lu-C at −78° C., RCP by radio-HPLC; settings: ^177Lu-C prepared using 2 mg GA
Experimental: as §1, §2
as §3, with “method 3” for “method 2”, “from 90%” for “from 92%”, “and 10%” for “and 8%”, “to 88%” for “to 90%”, “and 12%” for “and 10%”
The ITLC method used Gelman Sciences silica-gel ITLC paper strips and 1:1 mixture of acetone and saline as eluant. By this method, the radiolabeled compounds migrate to the solvent front while [^90Y]/^177Lu]colloid and [^90Y]/^177Lu]acetate remain at the origin.
(§4) The 0.5 M ammonium acetate buffer (pH 8.0) was first degassed under vacuum for 1-2 min. COMPOUND C and gentisic acid (sodium salt, GA) were dissolved in the degassed buffer to give a concentration of 100 μg/mL for COMPOUND C and 2 mg/mL for GA. The resulting solution was immediately degassed under vacuum for another 1-2 min. To a clean sealed 5 mL vial was added 1.0 mL of the degassed 0.5 M ammonium acetate buffer (pH 8.0) containing 100 μg COMPOUND C and 2 mg GA. The solution was degassed again under vacuum. Upon addition of ˜20 μL of ^177LuCl3 solution (˜20 mCi) in 0.05 N HCl, the reaction mixture was heated at 100° C. for 5 min. After cooling to room temperature, a sample of the resulting solution was analyzed by HPLC (Method 3, injection volume=5 μL) and ITLC. […] To the solution above was added 0.5 mL of sodium ascorbate solution (40 mg/mL in 0.5 M ammonium acetate buffer, pH=7.4). The resulting mixture was then kept in a dry-ice box (−78° C.) for 7 days. Samples were analyzed at t=0, 3 and 7 days.
as §4, with “COMPOUND” for “The 0.5 M ammonium acetate buffer (pH 8.0) was first degassed under vacuum for 1-2 min. COMPOUND”, “1.0 μL” for “1.0 mL”, “of 2,3,4-THBA” for “of sodium ascorbate”, “solution (20” for “solution (40”
COMPOUND C and gentisic acid (sodium salt, GA) were dissolved in the degassed buffer to give a concentration of 100 μg/mL for COMPOUND C and 2 mg/mL for GA. The resulting solution was immediately degassed under vacuum for another 1-2 min. […]

[4] = degassed, second stabilizer (20 mg AA, 20 mg DSA, 10 mg 2,3,4-THBA, 10 mg HABA) added post-labeling
[5] = second stabilizer added post-labeling, t = 0 to 7 days
[6] = degassed, second stabilizer (20 mg AA, 20 mg DSA, 10 mg 2,3,4-THBA, 10 mg 3,4,5-THBA) added post-labeling

O=C1O[C@H]([C@@H](O)CO)C([O-])=C1O.[Na+] [AA, sodium ascorbate, reference compound]
RCP (%) t = 1 day [1]: 97.7%
RCP (%) t = 0 [2, 4]: 95.0%
RCP (%) t = 3 days [2, 4]: 93.9%
RCP (%) t = 7 days [2, 4]: 94.5%
RCP (%) change [2, 5]: 0.5%
RCP (%) t = 0 [3, 6]: 97.6%
RCP (%) t = 3 days [3, 6]: 97.5%
RCP (%) t = 7 days [3, 6]: 93.0%
RCP (%) change [3, 5]: 4.6%
